Results reported in US8790687B2, “Triterpene compounds which are effective on improvement of brain function” (priority 2003, dated 2014).

Experiments:
mice = test: Passive avoidance test, scopolamine-induced memory failure; type: in vivo; conditions: scopolamine (1 mg/kg) group = 0%; for memory improvement / prevention activity to memory failure: passive avoidance latency, control without scopolamine and drugs = 100%, oral single administration, dose of compound not given
Description: A shuttle box (50×15×40 cm) was used as an experimental device. The box was divided into two rooms by a guillotine door, where one of which was bright by illumination while the other was dark by black cloth, giving rise to two different illumination effects. Firstly, mice were placed into a bright room, the bright room was kept lighted and the guillotine door was kept open. The mice entered the dark room in 20 sec in accordance with their negative phototaxis and the guillotine door was kept closed upon the entrance. The latency period in which a mouse enters the dark room from the bright room was measured in a manner described above. On the first day of the test, all mice were subject to a training trial for 20-sec latency period. Next day, mice subject to the training trial were again placed in the bright room and the bright room was then kept lighted to render mice to enter the dark room. At this time, the electric shock of 0.8 mA was imposed for 3 sec by using an electric grid equipped on the bottom of the dark room to impose the electric shock on the sole of mice feet. After 24 hr of such acquisition trial, mice were again placed in the bright room and the bright room was then kept lighted to induce mice to enter the dark room. At this time, normal mice hesitated to enter the dark room due to the memory about the shock of the previous day. […] The control not subject to the administration of scopolamine and drugs was considered 100% and the group subject to the administration of scopolamine (1 mg/kg), known to result in the failure of memory through the inhibition of transmission of neurotransmitters, was considered 0%.

in vivo = conditions: male, ICR, mouse, in vivo, po
Description: (§1) Furthermore, for 2 weeks after the administration, the death rate, general conditions and body weight of mice were examined and abnormality of organs was observed via autopsy.

ICR mice = test: in vivo; conditions: oral; for disorders (general conditions): all dosages (2.0 g/kg, 680, 230, 75 mg/kg); for disorders (general conditions) / results of autopsy (abnormality of organs): ICR mice; for results of autopsy (abnormality of organs): autopsy after 2 weeks observation, versus control group; for LD10: seven times in 1 week, male ICR mice, observed 2 weeks
Description: as §1

Row | SMILES | memory improvement / prevention activity to memory failure (mice) | LD50 (in vivo) | disorders (general conditions) (ICR mice) | results of autopsy (abnormality of organs) (ICR mice) | LD10 (ICR mice) | prevention efficacy to memory failure (mice; positive control, oral administration 30 mg/kg, control = 100%)
1 | CC1(C)CCC2(C(=O)O)CCC3(C)C(=CCC4C5(C)CCC(O)C(C)(CO)C5CCC43C)C2C1 (stereo not drawn) [hederagenine] | 41.1% | ≥ 5000 mg/kg | no disorders | not different from the control group | 750 mg/kg | 
2 | C[C@H]1[C@H](C)CC[C@]2(C(=O)O)CC[C@]3(C)C(=CC[C@@H]4[C@@]5(C)CC[C@H](O)C(C)(C)[C@@H]5CC[C@]43C)[C@H]12 [ursolic acid] | 37.0% | ≥ 5000 mg/kg | no disorders | not different from the control group | 750 mg/kg | 
3 | Nc1c2c(nc3ccccc13)CCCC2 [tacrine, reference compound] |  |  |  |  |  | 35%
4 | CC1(C)CC[C@]2(C(=O)O)CC[C@]3(C)C(=CC[C@@H]4[C@@]5(C)CC[C@H](O)C(C)(C)[C@@H]5CC[C@]43C)[C@@H]2C1 [oleanolic acid] | 43.3% | ≥ 5000 mg/kg |  | not different from the control group | 750 mg/kg | 
